Earlier results, collected in patent publication US7223777B2, “Compounds for the management of aging-related and diabetic vascular complications, process for their preparation, therapeutic and cosmetic uses thereof” (Torrent Pharmaceuticals Ltd., priority 2001, dated 2007).

How the values were obtained:
diabetic rats [1] = conditions: diabetic rats (Kihara 1991, Miyauchi 1996, Yagihashi 1992); cited from earlier work
old rats = conditions: aging rats (Li et al 1996); cited from earlier work
[2] = system: diabetic retinopathy in rat model; conditions: rat model (Hammes 1991, 1994; Roufail 1998); cited from earlier work
diabetic rats [3] = conditions: cited from earlier work

For `N=C(N)NN` [aminoguanidine], the nerve conduction velocity (diabetic rats [1]) is listed as “improve nerve conduction velocity”, the tissue damage (old rats) is listed as “significantly prevent tissue damage” and the “progression of diabetic retinopathy” value [2] is listed as “retard progression of diabetic retinopathy”. The “development of diabetic nephropathy” value (diabetic rats [3]; Yamauchi (1997)) was “inhibits development of diabetic nephropathy”, the “thickening of glomerular basement membrane” value (diabetic rats [3]; diabetic rats (Ellis 1991)) was “ameliorate thickening of glomerular basement membrane” and the rise in albuminuria (diabetic rats [3]; experimental diabetic rats (Soulis-Liparota, 1991)) was “attenuate the rise in albuminuria”.
